Patent publication US20040009921A1, “Methods and compositions for the treatment of cancer” (Allergan, Inc., priority 2002, published 2004)

Tests used:
[1] = system: β-catenin-driven gene transcription in APC-negative colorectal cancer cell line SW480; experiment: Topflash reporter gene assay in SW480 cells; type: cell-based
Experimental: (§1) Cultured cells were transfected with 100 ng of reporter gene Topflash® together with expression vectors indicated under each graph. […] (A) Data from HEK293 cells co-transfected with wild type or mutant β-catenin (200 ng) and RXRα (20 ng). (B) CAT, a stable cell line that overexpresses β-catenin (left panel). RBC, a stable cell line that overexpresses both RXRα and β-catenin. (C) SW480, a colorectal cancer cell line, was transfected with 100 ng of Topflash®. The amount of RXRα cotransfected was indicated below the X axis. Reporter activity on the Y axis is expressed as either Luciferase Unit or percentage of activity in cells transfected with Topflash® alone.
For transfection of the HEK293 cell line, cells were seeded at a density of 50,000 cells per well in 24-well plates coated with poly-D-Lysine (Becton Dickinson). […] Harvested cells were lysed, and luciferase activity was measured as previously described (de Wet, J. R., Wood, K. V., DeLuca, M., Helinski, D. R., Subramani, S. (1987) Mol. Cell. Biol. 7, 725-737). In cells transfected with the LacZ control gene, β-galactosidase activity was measured by standard colorimetric assays. Renilla reniformis […] activity was determined using the Dual-Luciferase Reporter 100 Assay System (Promega Corporation, 2800 Woods Hollow Road, Madison Wis. USA 53711). […]

RARα = target: T1, RARα (Homo sapiens, UniProt P10276); experiment: Western blotting of RAR protein in transfected HEK293 cells; type: cell-based; settings: HEK293 co-expressing RXRα with RARα
T1 construct: expressed in transfected cells; host or cells: HEK293
T1 sequence (P10276 1-462): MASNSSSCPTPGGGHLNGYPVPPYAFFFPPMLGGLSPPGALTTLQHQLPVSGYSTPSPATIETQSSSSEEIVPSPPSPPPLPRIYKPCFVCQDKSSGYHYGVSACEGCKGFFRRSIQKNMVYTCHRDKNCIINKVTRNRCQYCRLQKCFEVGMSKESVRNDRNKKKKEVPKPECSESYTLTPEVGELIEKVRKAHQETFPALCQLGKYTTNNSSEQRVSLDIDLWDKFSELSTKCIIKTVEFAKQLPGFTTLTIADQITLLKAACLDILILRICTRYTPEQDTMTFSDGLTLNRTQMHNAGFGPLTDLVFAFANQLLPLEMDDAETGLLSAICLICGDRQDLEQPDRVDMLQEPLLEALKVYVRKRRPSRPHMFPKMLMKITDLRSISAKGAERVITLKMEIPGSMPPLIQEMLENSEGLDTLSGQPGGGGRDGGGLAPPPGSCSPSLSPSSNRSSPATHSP
Experimental: HEK293 cells transfected with expression vectors for β-catenin (4 μg) and RXRs (2 μg) or RARs (2 μg) and treated with ligands at concentrations indicated at the top of each gel. Protein levels were detected by Western blotting as shown in this figure. β-catenin and RARs were detected by HRP-conjugated antibodies against their V5 tag. RXRs were detected by HRP-conjugated antibodies against their Flag tag. […] In this experiment, the amount of expression vectors for RXRα and RARs used in transfection was 1 μg.
HEK293 cells were seeded at a density of 2×10 per dish were seeded into 100-mm dishes and cultured overnight in DMEM containing 10% FBS. Cells were transfected with 1-4 μg of various cDNA or parental expression vectors (8 μg of DNA in total) using Lipofectamine®. Five hours after transfection, cells were fed with fresh culture media DMEM containing 10% charcoal-treated FBS with vehicle DMSO or retinoids prepared in DMSO. […]
Total cell lysates were homogenized by passing through a QIAshredder® (Qiagen) and cleared from insoluble materials by centriftigation at 12,000 g. Protein concentration was determined using a Bradford total protein assay kit (Bio-Rad). […]

[2] = system: β-catenin-mediated gene transactivation (TCF/LEF reporter Topflash); experiment: Topflash reporter gene assay in HEK293 cells and stable lines RBC, CAT; type: cell-based, human
Experimental: as §1
For transfection of the HEK293 cell line, cells were seeded at a density of 50,000 cells per well in 24-well plates coated with poly-D-Lysine (Becton Dickinson). After 24 hours, the luciferase-based reporter plasmids and expression vectors were cotransfected into cells using Fugene according to the manufacturer's instruction (Roche Applied Science). To monitor the efficiency of transfection, either 15 ng of phRG-TK Renilla or 100 ng of CMX-LacZ DNA were cotransfected. […] Harvested cells were lysed, and luciferase activity was measured as previously described (de Wet, J. R., Wood, K. V., DeLuca, M., Helinski, D. R., Subramani, S. (1987) Mol. Cell. Biol. 7, 725-737). In cells transfected with the LacZ control gene, β-galactosidase activity was measured by standard colorimetric assays. Renilla reniformis […] activity was determined using the Dual-Luciferase Reporter 100 Assay System (Promega Corporation, 2800 Woods Hollow Road, Madison Wis. USA 53711). The experimental reporter gene activity was normalized against either β-galactosidase or Renilla GFP activity. Values represent the mean +/− SEM of quadruplicate determinations.
To investigate whether RXR and its ligands affect β-catenin-mediated gene transactivation, the APC-positive human HEK293 cells were transfected with the reporter gene Topflash®. This reporter gene contains multiple copies of responsive elements for the DNA-binding transcription activators, TCF/LEF, upstream of the basic luciferase reporter gene construct tk-Luc. The tk-Luc portion of he reporter plasmid consists of a minimal gene promoter from HSV tk gene and a coding sequence for luciferase. Transactivation of this reporter by TCF/LEF can be affected by endogenous as well as overexpressed β-catenin, which interacts with TCF/LEF as a co-activator.

For `CC(/C=C/[C@@H]1C[C@]1(C)c1ccc2c(c1)C(C)(C)CCC2(C)C)=C\C(=O)O` [AGN 4204], the reporter gene activity ([1]; SW480, low levels of endogenous RXRs only) was “not sufficient to produce an effect”, the reporter gene activity ([1]; SW480 cotransfected with RXRα, 0.1 μM, 17 hours) was “a decrease in reporter gene activity” and the “degradation of RARα” value (RARα) was “RXR-ligand-dependent degradation”. The “Topflash reporter activity from endogenous β-catenin” value ([2]; HEK293, endogenous β-catenin, 0.1 μM, 17 hours) was “moderately reduced”, the “ΔNβ-catenin mutant activity in transactivating Topflash” value ([2]; HEK293, ΔNβ-catenin in the presence of RXRα) was “significantly impaired” and the “decrease in reporter activity” value ([2]; HEK293 cotransfected with β-catenin and RXRα, 0.1 μM, 17 hours) was 90%. For the same molecule, the “decrease in reporter activity” value ([2]; stable line CAT overexpressing only β-catenin, 0.1 μM, 17 hours) was 30% and the “decrease in reporter activity” value ([2]; stable line RBC expressing β-catenin and RXRα, 0.1 μM, 17 hours) was “decrease in the reporter activity was also observed”.
